Data set [1] concerns the target T1, Oxysterols receptor LXR-alpha (Homo sapiens) (UniProt Q13133).
T1 sequence (whole entry): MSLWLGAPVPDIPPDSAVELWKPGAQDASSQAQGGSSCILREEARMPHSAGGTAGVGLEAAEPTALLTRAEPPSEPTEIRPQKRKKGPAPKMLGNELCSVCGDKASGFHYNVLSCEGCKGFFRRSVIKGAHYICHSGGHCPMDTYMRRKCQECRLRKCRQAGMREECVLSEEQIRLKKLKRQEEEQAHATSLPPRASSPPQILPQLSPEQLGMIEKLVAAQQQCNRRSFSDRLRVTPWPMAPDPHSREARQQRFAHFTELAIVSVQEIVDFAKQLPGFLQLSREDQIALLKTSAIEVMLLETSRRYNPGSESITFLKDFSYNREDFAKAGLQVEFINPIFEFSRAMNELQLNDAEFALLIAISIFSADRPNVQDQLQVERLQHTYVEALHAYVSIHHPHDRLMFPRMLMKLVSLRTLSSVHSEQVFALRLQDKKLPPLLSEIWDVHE
Description: Relative efficacy compared to 24(S),25-epoxy cholesterol in Liver X receptor-alpha ligand-sensing assay

For data set [2], the target named is T2, Oxysterols receptor LXR-alpha (Homo sapiens, UniProt Q13133).
T2 sequence (Q13133 whole entry): T1 sequence (whole entry)
Description: Ligand-dependent recruitment of steroid receptor co-activator 1 (SRC1) to Liver X receptor-alpha.

Data set [3] addresses T1, Oxysterols receptor LXR-alpha (Homo sapiens). Description: Effective concentration in LXR alpha-Gal4 receptor gene assay; inactive at 10 uM.
Data set [4] has the same target. The source holds these as a separate data set.
Description: Relative efficacy compared to 24(S),25-epoxy cholesterol in LXR alpha-Gal4 receptor gene assay
Data set [5] deals with T2, Oxysterols receptor LXR-alpha. The data set can be described thus: Effective concentration in LXR alpha-Gal4 receptor gene assay.
The nature of data set [6]: the half-life (t1/2) in mice after a dose of 10 mg/kg. The following applies: mouse, in vivo. Also on record: dose 10 mg/kg. It counts as ADME, organism-based.
Data set [7] is described as follows: Cmax in mice after 10 mg/kg oral dose. Also on record: dose 10 mg/kg, route oral. It counts as ADME, organism-based. The settings on record: mouse, in vivo.
The nature of data set [8]: Oral bioavailability after administration of a dose of 10 mg/kg. It counts as ADME, organism-based. The settings on record: in vivo.

Activity calls are given as the source filed them.

In general, EC50 refers to the concentration needed to bring the measured effect to its halfway point. Lower therefore signals greater potency. As a reminder, the half-life is the time needed for the level to fall by half in the phase considered. Low readings indicate fast loss, high ones slow loss. A word on the Cmax: it is the peak of the concentration-time curve. For orientation: bioavailability means dose-corrected exposure relative to a reference, in per cent. Read a low bioavailability as little systemic uptake.

In data set [1], `COc1ccc(CN(CCCOc2cccc(CC(N)=O)c2)CC(c2ccccc2)c2ccccc2)cc1` gave an RE of 0.8. The concentration giving a half-maximal response (EC50) in data set [2] amounted to 260 nM. In addition, the IA entry in data set [3] was “inactive”.
Consider `COc1ccc(CN(CCCOc2cccc(CC(=O)O)c2)CC(c2ccccc2)c2ccccc2)cc1`, for which the RE in data set [4] worked out at 0.9; in data set [1], 0.8. Also, the half-maximal effective concentration (EC50) in data set [5] amounted to 8000 nM; in data set [2], 860 nM.
For the compound `O=S(=O)(c1ccccc1)N(CC(F)(F)F)c1ccc(C(O)(C(F)(F)F)C(F)(F)F)cc1`, the RE in data set [4] turned out to be 2.5; in data set [1], 1.
For `NC(=O)Cc1cccc(OCCCN(Cc2cccc(C(F)(F)F)c2Cl)CC(c2ccccc2)c2ccccc2)c1`, the RE in data set [4] came to 1.5; in data set [1], 1.1. Moreover, the figures for the EC50 in data set [5] and in data set [2] were 425 nM and 45 nM, respectively.
For `O=C(O)Cc1cccc(OCCCN(Cc2cccc(C(F)(F)F)c2Cl)CC(c2ccccc2)c2ccccc2)c1`, the RE in data set [4] was found to be 1.7; in data set [1], 1. The same compound showed a half-life in data set [6] of 2 h. Further, in data set [7], the Cmax came out at 12700 ng/mL. Besides, the EC50 in data set [5] was found to be 190 nM; in data set [2] it was 125 nM. In data set [8], the bioavailability is 70%.
Take `C[C@H](CC[C@@H]1OC1(C)C)[C@H]1CC[C@H]2[C@@H]3CC=C4C[C@@H](O)CC[C@]4(C)[C@H]3CC[C@]12C` [24(S),25-EPOXYCHOLESTEROL]: the RE in data set [4] and in data set [1] was 1 each time. The EC50 in data set [5] amounted to 3000 nM; in data set [2], 95 nM.
Take `NC(=O)Cc1cccc(OCCCN(Cc2cccc(C(F)(F)F)c2)CC(c2ccccc2)c2ccccc2)c1`: the values for the RE in data set [4] and in data set [1] were 0.3 and 0.7, respectively. The EC50 was 650 nM in data set [5] and 85 nM in data set [2].
With `COc1ccc(CN(CCCOc2cccc(CC(N)=O)c2)CC(c2ccccc2)c2ccccc2)c(F)c1`, the figures for the RE in data set [4] and in data set [1] were 0.4 and 0.9, respectively. Further, the EC50 in data set [5] amounted to 700 nM; in data set [2], 190 nM.
The matching figures for `COc1ccc(CN(CCCOc2cccc(CC(N)=O)c2)CC(c2ccccc2)c2ccccc2)cc1F`: 0.5, 0.7, 910 nM and 250 nM.
On the same counts, the results for `NC(=O)Cc1cccc(OCCCN(Cc2ccc(F)c(C(F)(F)F)c2)CC(c2ccccc2)c2ccccc2)c1` are 0.4, 0.9, 945 nM and 85 nM.
On to `COc1ccc(CN(CCCOc2cccc(C(N)=O)c2)CC(c2ccccc2)c2ccccc2)cc1OC`, for which the RE in data set [1] is 0.2. The compound further displayed an EC50 in data set [2] of 260 nM.
`COc1ccc(CN(CCCOc2cccc(CC(N)=O)c2)CC(c2ccccc2)c2ccccc2)c(OC)c1`: the RE in data set [4] is 0.6; in data set [1], 0.7. The EC50 worked out at 4000 nM in data set [5] and 660 nM in data set [2].

Values taken from ChEMBL document CHEMBL1135404, “Identification of a nonsteroidal liver X receptor agonist through parallel array synthesis of tertiary amines” (J Med Chem, 2002).
